Experimental data reported in US4869904A, “Sustained release drug preparation” (Nisshin Flour Milling Co., Ltd., priority 1986, dated 1989).
Where a name gives a salt, the structure may show the parent alone.

Experiment: Dissolution and release of powder samples in water (FIG. 2)
Assay type: physicochemical
Details: alone
Procedure: The formation of an inclusion complex of a medical compound with an alkylated cyclodextrin derivative in accordance with the process described above was confirmed by various methods such as powder X-ray diffraction, dissolution behavior, scanning electron microscope analysis, differential thermal analysis (DTA) and infrared absorption (IR). Inclusion complexes were prepared using diltiazem hydrochloride as an exemplary medical compound, and the behavior of dissolution and release of diltiazem from the inclusion complex in the powder form, as well as the behavior of dissolution and release of diltiazem from compressed tablets containing the inclusion complex were determined in order to confirm the complexing reaction and to evaluate the sustained release property, respectively. Further, the inclusion complex was administered orally to rats, and changes in the plasma concentration of the medical compound were then measured. While taking the determined dissolution and release behavior of the diltiazem into parallel consideration, the achievement of the sustained release property of the inclusion complex was confirmed. It was also proven that the dissolution and release rate of the medical compound, diltiazem, could be controlled at will, by using the ethylated cyclodextrins as the host compound for formation of inclusion complexes. […]

COc1ccc([C@@H]2Sc3ccccc3N(CCN(C)C)C(=O)[C@@H]2OC(C)=O)cc1 [diltiazem hydrochloride]
time to dissolution in water to an extent of 100%: about 5 minutes
